This is an account of results in ChEMBL document CHEMBL3045886, “Benzothiazole Schiff-bases as potential imaging agents for -amyloid plaques in Alzheimers disease” (Med Chem Res, 2013).

The source made the active and inactive calls. The calls are words filed in the database; no cut-off is given here.

For orientation: Ki means the dissociation constant of the complex between target and ligand, obtained from inhibition or displacement. A low value points to a stronger hold on the target.

The target in experiment [1] is T1, Amyloid-beta precursor protein (Homo sapiens, UniProt P05067). In words: Displacement of [125I]IMPY from beta amyloid (unknown origin) isolated from alzheimer's patient brain homogenates after 2 hr by gamma counting analysis. On the technique in general: Displacement assays read how much labelled ligand stays bound in the presence of the test substance.
T1 sequence (P05067 whole entry): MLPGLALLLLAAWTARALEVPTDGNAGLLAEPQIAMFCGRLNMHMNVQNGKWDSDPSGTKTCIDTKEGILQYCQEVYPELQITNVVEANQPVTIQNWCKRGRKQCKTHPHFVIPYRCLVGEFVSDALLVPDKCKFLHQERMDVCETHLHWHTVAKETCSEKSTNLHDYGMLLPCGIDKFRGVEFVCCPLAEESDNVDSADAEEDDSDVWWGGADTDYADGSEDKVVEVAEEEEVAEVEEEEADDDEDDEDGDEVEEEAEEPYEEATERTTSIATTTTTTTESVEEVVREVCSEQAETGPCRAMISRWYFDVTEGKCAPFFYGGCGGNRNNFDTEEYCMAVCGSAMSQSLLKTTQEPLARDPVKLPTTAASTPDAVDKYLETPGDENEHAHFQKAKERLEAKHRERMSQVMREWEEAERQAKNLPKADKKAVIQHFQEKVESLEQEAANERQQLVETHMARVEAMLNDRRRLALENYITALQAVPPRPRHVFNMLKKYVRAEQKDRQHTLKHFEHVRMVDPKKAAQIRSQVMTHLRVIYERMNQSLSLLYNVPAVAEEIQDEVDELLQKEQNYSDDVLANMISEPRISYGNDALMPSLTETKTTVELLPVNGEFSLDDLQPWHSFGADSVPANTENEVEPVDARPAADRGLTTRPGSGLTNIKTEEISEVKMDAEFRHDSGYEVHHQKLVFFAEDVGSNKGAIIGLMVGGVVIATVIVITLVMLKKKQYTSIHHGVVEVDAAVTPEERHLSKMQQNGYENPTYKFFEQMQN
Experiment [2] addresses T1, Amyloid-beta precursor protein. In words: Binding affinity to beta amyloid (unknown origin) isolated from alzheimer's patient brain homogenates at 50 uM after 20 min by fluorescence microscopic analysis relative to thioflavin S-treated control. The class given is tissue-based.

`COc1ccc(/C=N/c2nc3ccc(OC)cc3s2)cc1` showed a Ki in experiment [1] of 10.8 nM.

Turning to `COc1ccc2nc(/N=C/c3ccc(N(C)C)cc3)sc2c1`, the Ki in experiment [1] turned out to be 4.38 nM. The outcome in experiment [2] was Active.

With `COc1ccc2nc(/N=C/c3ccc([N+](=O)[O-])cc3)sc2c1`, the Ki in experiment [1] came out at 515 nM. This counts as sub-micromolar.

For the molecule `COc1ccc2nc(/N=C/c3ccc(I)cc3)sc2c1`, the affinity in experiment [1], expressed as Ki, was 103 nM.

Molecule `COc1ccc2nc(/N=C/c3ccc(O)cc3)sc2c1` displayed a Ki in experiment [1] of 34.7 nM. Compared with the last molecule, the Ki is about 3-fold lower.

Regarding `COc1ccc2nc(/N=C/c3ccc(Br)cc3)sc2c1`, the Ki in experiment [1] was 106 nM.
